According to US20130065964A1, “PERITONEAL DIALYSIS SOLUTION” (UNIVERSIDAD DE CASTILLA LA MANCHA, priority 2010, published 2013):

What was measured:
fibronectin = test: Real-time RT-PCR in cultured PMCs exposed to PDF; assay type: cell-based; details: rat PMCs, 1.5% PDF diluted 1:1 in culture medium, 24 hours, aliskiren 10-100 μM, FIG. 11
Experimental: (§1) After incubating the rat PMCs in 1.5% PDF diluted 1:1 in culture medium for 24 hours, in the presence or absence of carrier or different concentrations of aliskiren (10-100 μM), total RNA was isolated and real-time RT-PCR was carried out as described in Material and Methods. The data is expressed as mean±SEM, n=3. * p<0.05 compared to untreated cells (control). # p<0.05, compared to cells treated with 1.5% PDF in the presence of carrier (0).
(§2) Rat peritoneal mesothelial cells were isolated by enzymatic digestion in accordance with protocols described in Hjelle J T, Golinska B T, Waters D C, et al. Perit Dial Int 1989; 9: 341-7. […]
(§3) The RNA expression was evaluated by real-time RT-PCR in PMCs. […] RNA quality and concentration was evaluated by spectrophotometry (Infinite 200, Tecan, Salzburg, Austria) using 1 μl of the RNA sample. […] The dissociation curves were analysed to confirm the amplification of a single PCR product. […] In each experiment, the mean cycle threshold (CT) was calculated from triplicates for each of the genes studied, enabling comparison of the gene expression after different treatments (Methods 25, 402-408 (2001). In order to normalize the data, the gene expression of β-actin was used as endogenous control.

Collagen I = test: Real-time RT-PCR in cultured PMCs exposed to PDF; assay type: cell-based; details: rat PMCs, 1.5% PDF diluted 1:1 in culture medium, 24 hours, aliskiren 10-100 μM, FIG. 9
Experimental: as §1, §2, §3

`COCCCOc1cc(C[C@@H](C[C@H](N)[C@@H](O)C[C@H](C(=O)NCC(C)(C)C(N)=O)C(C)C)C(C)C)ccc1OC` [aliskiren] was tested, and the “RNAm levels for fibronectin” value (fibronectin) was “lowered” and the “RNAm levels for collagen I” value (Collagen I) was “lowered”.
